Test results taken from patent US20220362153A1, “COMPOSITIONS AND METHODS FOR PULMONARY SURFACTANT-BIOMIMETIC NANOPARTICLES” (priority 2019, published 2022).

System: rgVN04 H5N1 virus
Parameters: species or system mice
Conditions: mouse, in vivo

Q: With cholera toxin [CT] as the substance, how does the “early protection by VN04 H5N1 vaccine combined with adjuvant” value read?
A: did not provide any early protection
